According to ChEMBL document CHEMBL1201862, “PubChem BioAssay data set” (2004):
Active and inactive are the calls of the source.

Legend:
[1] = target: Heat shock protein HSP 90-alpha (Homo sapiens, UniProt P07900); format: functional, organism-based
[2] = target: T1, V-type proton ATPase subunit c' (Saccharomyces cerevisiae S288c, UniProt P32842); test: Dose Response of Small Molecules that Regulate V-ATPase Proton Transport in Yeast using pHLuorin, Powder Set1.; format: functional; details: read-out: EC50_MICROM
[3] = target: T2, Microphthalmia-associated transcription factor (Homo sapiens, UniProt O75030); test: reducers of TRPM1 reporter luminescence, concentration series – cell-based, SK-MEL-5, cherry-picked, set 3, MITF inhibitor project, dose response (AID 493073); format: functional;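 note: SK-MEL-5 melanoma cells with luciferase driven by the MITF target TRPM1 promoter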
T2 sequence (O75030 whole entry): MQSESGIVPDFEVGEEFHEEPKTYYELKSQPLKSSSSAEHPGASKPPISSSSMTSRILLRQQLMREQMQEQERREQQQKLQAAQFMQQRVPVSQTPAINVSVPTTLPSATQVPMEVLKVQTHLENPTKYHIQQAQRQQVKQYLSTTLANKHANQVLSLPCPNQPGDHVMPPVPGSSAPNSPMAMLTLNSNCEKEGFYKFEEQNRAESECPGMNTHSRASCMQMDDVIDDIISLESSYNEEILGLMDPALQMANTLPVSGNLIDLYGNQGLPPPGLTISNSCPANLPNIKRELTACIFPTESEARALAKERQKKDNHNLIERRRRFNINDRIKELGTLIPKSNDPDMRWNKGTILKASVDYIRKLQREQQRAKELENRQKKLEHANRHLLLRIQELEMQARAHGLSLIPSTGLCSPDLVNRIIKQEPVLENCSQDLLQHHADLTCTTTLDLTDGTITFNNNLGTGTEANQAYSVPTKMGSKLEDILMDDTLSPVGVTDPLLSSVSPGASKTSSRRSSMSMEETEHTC

[4] = target: T1, V-type proton ATPase subunit c'; test: Dose Response of Small Molecules that Regulate V-ATPase Proton Transport in Yeast using pHLuorin, Cherry Pick 2.; format: functional; details: read-out: EC50_MICROM
[5] = target: Sphingosine 1-phosphate receptor 5 (Homo sapiens, UniProt Q9H228); test: activation of human S1P5 receptor – cell-based, fluorescence, set 2, counter-screen for S1P4 agonist project, late-stage follow-up (AID 504867); format: functional
[6] = target: Sphingosine 1-phosphate receptor 1 (Homo sapiens, UniProt P21453); test: Late-stage fluorescence-based dose-response cell-based counterscreen assay to identify agonists of the Sphingosine 1-Phosphate Receptor 4 (S1P4): Sphingosine 1-Phosphate Receptor 1 (S1P1) agonist assay Set 2.; format: functional
[7] = target: Sphingosine 1-phosphate receptor 3 (Homo sapiens, UniProt Q99500); test: Late-stage fluorescence-based dose-response cell-based counterscreen assay to identify agonists of the Sphingosine 1-Phosphate Receptor 4 (S1P4): Sphingosine 1-Phosphate Receptor 3 (S1P3) agonist assay Set 2.; format: functional
[8] = target: T3, Endoribonuclease toxin MazF (Escherichia coli K-12, UniProt P0AE70); test: substrate-only fluorescence increase artefacts – biochemical, single-stranded RNase substrate, counter-screen for MazEF activator project, dose response (AID 588502); format: functional
T3 sequence (P0AE70 whole entry): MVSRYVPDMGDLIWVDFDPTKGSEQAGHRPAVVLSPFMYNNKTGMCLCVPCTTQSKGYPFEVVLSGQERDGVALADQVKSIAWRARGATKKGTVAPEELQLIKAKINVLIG

[9] = target: T3, Endoribonuclease toxin MazF; test: MazEF toxin-antitoxin RNase activation – biochemical, fluorescence, single-stranded RNA substrate, SAR follow-up (AID 588603); format: functional
MEF = test: SAR analysis of small molecule cytotoxicity of MazEF TA System activators in embryonic fibroblast (MEF) cells. [Related pubchem assays (depositor defined):AID504720, AID504743]; format: functional; details: Mus musculus
[10] = target: T3, Endoribonuclease toxin MazF; test: SAR analysis of small molecule activators of the MazEF TA System via a fluorescence-based single-stranded RNase assay counterscreen. [Related pubchem assays (depositor defined):AID504720, AID504743]; format: functional
[11] = target: T3, Endoribonuclease toxin MazF; test: activation of MazEF endoribonuclease cleavage – biochemical, fluorescence, single-stranded RNA substrate, uHTS hits, dose response (AID 588481); format: functional
Phospholipase D2 = Phospholipase D2 (Homo sapiens, UniProt O14939); test: cellular phospholipase D2 inhibition IC50 – cell-based, dose response (AID 602147); format: functional;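 note: cellular assay in HEK293 cells overexpressing GFP-tagged PLD2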
Phospholipase D1 = Phospholipase D1 (Homo sapiens, UniProt Q13393); test: cellular phospholipase D1 inhibition IC50 – cell-based, dose response (AID 602151); format: functional;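 note: cellular PLD1 assay in Calu-1 cells stimulated with PMA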
Sequence of Phospholipase D1 (Q13393 whole entry): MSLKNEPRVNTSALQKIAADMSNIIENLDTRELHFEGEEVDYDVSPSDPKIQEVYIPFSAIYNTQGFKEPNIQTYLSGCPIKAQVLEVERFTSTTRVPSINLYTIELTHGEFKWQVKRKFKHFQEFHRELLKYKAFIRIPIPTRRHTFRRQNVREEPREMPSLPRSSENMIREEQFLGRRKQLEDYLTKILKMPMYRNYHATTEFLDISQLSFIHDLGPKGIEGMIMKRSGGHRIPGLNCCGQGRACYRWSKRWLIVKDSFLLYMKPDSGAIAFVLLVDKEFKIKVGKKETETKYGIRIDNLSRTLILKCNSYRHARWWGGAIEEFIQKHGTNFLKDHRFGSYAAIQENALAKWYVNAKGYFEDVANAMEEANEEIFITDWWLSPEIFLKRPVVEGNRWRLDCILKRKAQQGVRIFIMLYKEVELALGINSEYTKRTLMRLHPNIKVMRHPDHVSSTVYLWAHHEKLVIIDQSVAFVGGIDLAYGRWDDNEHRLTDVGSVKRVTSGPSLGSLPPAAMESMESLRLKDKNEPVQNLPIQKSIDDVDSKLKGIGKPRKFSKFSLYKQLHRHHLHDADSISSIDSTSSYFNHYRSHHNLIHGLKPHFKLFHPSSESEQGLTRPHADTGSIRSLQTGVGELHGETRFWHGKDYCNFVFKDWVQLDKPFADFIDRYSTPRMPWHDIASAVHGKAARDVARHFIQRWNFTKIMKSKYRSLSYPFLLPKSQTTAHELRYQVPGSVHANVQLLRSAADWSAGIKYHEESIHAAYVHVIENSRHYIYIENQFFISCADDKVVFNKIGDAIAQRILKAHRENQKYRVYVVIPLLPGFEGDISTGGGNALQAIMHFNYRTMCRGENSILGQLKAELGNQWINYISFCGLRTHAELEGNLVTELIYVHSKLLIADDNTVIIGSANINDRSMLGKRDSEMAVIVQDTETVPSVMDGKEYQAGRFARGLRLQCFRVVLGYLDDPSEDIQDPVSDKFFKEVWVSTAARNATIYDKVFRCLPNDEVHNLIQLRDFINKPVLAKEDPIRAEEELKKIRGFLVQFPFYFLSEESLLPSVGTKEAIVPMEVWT

T1 sequence (P32842 whole entry): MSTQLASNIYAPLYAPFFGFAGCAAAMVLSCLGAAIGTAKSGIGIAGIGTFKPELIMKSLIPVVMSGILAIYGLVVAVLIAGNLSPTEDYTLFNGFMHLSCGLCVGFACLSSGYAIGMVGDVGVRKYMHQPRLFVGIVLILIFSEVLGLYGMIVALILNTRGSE
Sequence of Phospholipase D2 (O14939 whole entry): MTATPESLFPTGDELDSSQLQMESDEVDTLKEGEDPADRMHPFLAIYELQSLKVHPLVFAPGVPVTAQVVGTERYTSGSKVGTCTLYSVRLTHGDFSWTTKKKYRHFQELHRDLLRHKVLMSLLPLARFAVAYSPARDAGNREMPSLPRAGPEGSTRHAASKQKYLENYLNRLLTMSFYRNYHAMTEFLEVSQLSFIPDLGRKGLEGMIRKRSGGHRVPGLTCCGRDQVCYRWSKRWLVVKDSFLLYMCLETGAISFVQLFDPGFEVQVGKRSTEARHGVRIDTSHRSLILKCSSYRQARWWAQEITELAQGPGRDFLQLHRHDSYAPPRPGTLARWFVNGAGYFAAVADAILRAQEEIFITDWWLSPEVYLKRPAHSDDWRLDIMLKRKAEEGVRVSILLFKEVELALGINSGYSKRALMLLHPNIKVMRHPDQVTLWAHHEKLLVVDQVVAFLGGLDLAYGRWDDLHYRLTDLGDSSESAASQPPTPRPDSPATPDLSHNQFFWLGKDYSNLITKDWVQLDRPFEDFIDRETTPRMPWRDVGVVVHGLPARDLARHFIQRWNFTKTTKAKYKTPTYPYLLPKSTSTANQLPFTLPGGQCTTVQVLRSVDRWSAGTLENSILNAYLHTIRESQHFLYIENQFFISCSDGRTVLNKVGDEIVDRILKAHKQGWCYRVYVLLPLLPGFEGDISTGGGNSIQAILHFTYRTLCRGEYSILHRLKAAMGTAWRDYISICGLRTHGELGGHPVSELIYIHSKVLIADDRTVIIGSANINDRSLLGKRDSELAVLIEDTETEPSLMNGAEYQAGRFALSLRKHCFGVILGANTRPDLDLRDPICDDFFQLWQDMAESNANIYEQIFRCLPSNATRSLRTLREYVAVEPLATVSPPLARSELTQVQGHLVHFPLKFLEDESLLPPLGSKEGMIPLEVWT
Sequence of Sphingosine 1-phosphate receptor 1 (P21453 whole entry): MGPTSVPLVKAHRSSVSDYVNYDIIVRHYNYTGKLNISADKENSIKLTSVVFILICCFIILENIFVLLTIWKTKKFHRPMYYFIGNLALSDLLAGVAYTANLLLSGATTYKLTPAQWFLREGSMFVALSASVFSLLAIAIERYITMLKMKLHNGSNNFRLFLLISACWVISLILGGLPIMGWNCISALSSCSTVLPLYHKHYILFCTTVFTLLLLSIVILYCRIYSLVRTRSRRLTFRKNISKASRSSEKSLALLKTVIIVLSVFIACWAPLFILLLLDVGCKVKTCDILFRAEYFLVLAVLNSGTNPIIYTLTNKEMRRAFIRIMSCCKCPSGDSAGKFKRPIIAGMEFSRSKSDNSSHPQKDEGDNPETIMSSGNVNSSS
Sequence of Sphingosine 1-phosphate receptor 3 (Q99500 whole entry): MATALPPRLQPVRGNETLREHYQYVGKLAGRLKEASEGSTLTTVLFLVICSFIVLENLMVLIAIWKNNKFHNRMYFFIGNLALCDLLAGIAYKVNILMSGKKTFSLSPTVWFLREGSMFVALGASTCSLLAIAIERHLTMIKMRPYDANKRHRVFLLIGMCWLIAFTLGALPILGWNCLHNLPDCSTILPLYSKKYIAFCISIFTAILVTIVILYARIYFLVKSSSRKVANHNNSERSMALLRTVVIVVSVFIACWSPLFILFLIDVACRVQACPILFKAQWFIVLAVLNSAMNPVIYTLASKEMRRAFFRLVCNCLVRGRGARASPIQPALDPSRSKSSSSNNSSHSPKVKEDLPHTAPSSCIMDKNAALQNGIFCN
Sequence of Sphingosine 1-phosphate receptor 5 (Q9H228 whole entry): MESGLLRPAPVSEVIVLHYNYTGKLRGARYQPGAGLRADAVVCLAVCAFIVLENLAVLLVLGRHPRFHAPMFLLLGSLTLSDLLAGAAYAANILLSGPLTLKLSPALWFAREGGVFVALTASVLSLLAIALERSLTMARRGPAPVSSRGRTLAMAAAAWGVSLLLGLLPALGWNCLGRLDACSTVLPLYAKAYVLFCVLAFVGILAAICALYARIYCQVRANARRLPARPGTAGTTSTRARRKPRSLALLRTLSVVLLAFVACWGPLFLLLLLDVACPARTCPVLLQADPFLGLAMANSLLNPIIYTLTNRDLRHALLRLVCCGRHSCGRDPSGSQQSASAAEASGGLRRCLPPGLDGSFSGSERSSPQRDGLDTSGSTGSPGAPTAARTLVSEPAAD

O=C(Nc1ccccc1N1CCOCC1)c1ccc([N+](=O)[O-])o1
AC50 [1]: 3.63 µM (active) | EC50 [2]: 4.18 µM (active) | AC50 [3]: 11.9 µM (active) | EC50 [4]: 25.3 µM (active)

CC/N=C1/SC(=Cc2cc(C)n(Cc3ccccc3OC)c2C)C(=O)N1CC
EC50 [5]: 106 nM (active) | EC50 [6]: 180 nM (active) | EC50 [7]: 13.7 µM (inactive)

CCC(C)NC(=O)c1ccc(CNS(=O)(=O)c2ccc3c(c2)C(C)(C)C(=O)N3C)cc1 (centres undefined)
EC50 [8]: > 99 µM (inactive) | EC50 [9]: 21.8 µM (inactive) | CC50 (MEF): > 99 µM (inactive) | EC50 [10]: > 99 µM (inactive) | EC50 [11]: 15.9 µM (active)

O=C(NCCN1CCC(n2c(=O)[nH]c3ccccc32)CC1)c1cc2ccccc2c2ccccc12
IC50 (Phospholipase D2): 420 nM (active) | IC50 (Phospholipase D1): 16 nM (active)
